According to patent US4160016A, “Receptor fluorescent immunoassay” (Syva Company, priority 1977, dated 1979):
Values joined by “and” are separate entries in the source; they are usually repeats but may differ in a detail not shown here. Identical values can stand only once.

Legend:
Type in all cases: biochemical
[1] = test system: Anti-Fluorescein and Anti-Morphine; assay: Table I fluorescence readings: fluorescein-morphine with antifluorescein and/or anti-morphine, with and without codeine
Method: In order to establish the utility of the subject compounds, the following assays were carried out. […] The fluorometer employed was a Perkin-Elmer MPF-2a. Antibodies to the fluorescers had been prepared according to normal procedures. The bovine serum albumin conjugates were injected into sheep, and after appropriate periods of time, the antibodies harvested according to conventional techniques. For typical methods of obtaining antibodies, see Microbiology, Hober Medical Division, Harper and Rowe, 1969; Landsteiner, Specificity of Seriological Reactions, Dover Publications, New York, 1962; Kabat, et al, supra; and Williams, et al, Methods in Immunology and Immunochemistry, Vol. 1, Academic Press, New York, 1967.
(§1) The reagents which were employed were as follows: FLUMO (fluorescein-morphine conjugate, Example V) was 3× 10^-6 M in water; antifluorescein was 5.6× 10^-6 M in binding sites, in water, 0.05M phosphate, pH 8.0; anti-morphine was 2× 10^-4 M in binding sites, 0.05M tris-HCl, pH 8.0, in saline solution; buffer was Tris/saline 0.05M/l, pH 8,0. Opiate solutions had 1,000 μg/ml of codeine. The solution was then diluted to a final volume of 4 ml with buffer.
(§2) All of the determinations were made at a sensitivity setting on the instrument of 4. Excitation light was 460 nm and the emitted light read at 516 nm, with a band width of 10 nm.
(§3) Where a reading is given but the absence of any material is indicated, only buffer was present in the cell. The reading times indicate the interval of time from the time of the first reading to the reading for the result which is reported, the first reading being made within as short an interval as possible of the mixing.

Anti-Morphine [2] = assay: Fluorescence assay for codeine with morphine-fluorescein conjugate (Ex. V) and antimorphine (Table 2)
From the text: The following tables indicate the results.

Anti-Morphine [3] = assay: Fluorescence quenching of fluorescein-morphine by anti-morphine alone (Table I, cell No. 3); conditions: for Signal Intensity: fluorescein-morphine 5 μl + anti-morphine 5 μl
Method: as §1, §2, §3

COc1ccc2c3c1O[C@H]1[C@@H](O)C=C[C@H]4[C@@H](C2)N(C)CC[C@@]341 [Codeine, codeine, reference compound]
change in signal intensity ([1]; cell No. 1, codeine added to mixture of the two antibodies, over 90 minutes): 0.5 units | change in signal intensity ([1]; cell No. 3, both antibodies with codeine and fluorescein-morphine, over 90 minutes): 6.5 units | Signal Intensity ([1]; codeine 5 μl + anti-fluorescein + anti-morphine, no fluorescein-morphine, 90 min, cell No. 1): 6 | Signal Intensity ([1]; codeine 5 μl + anti-fluorescein + anti-morphine, no fluorescein-morphine, first reading, cell No. 1): 5.5 | Signal Intensity ([1]; codeine 5 μl added to fluorescein-morphine + anti-fluorescein + anti-morphine, 90 min, cell No. 3): 16 | Signal Intensity ([1]; codeine 5 μl added to fluorescein-morphine + anti-fluorescein + anti-morphine, first reading, cell No. 3): 20 | change in fluorescence ([1]; codeine introduced into mixture of fluorescein-morphine and antibodies to fluorescein and morphine): a detectable change in fluorescence is obtained | fluorescence quenched by the anti-morphine that is recovered with the addition of codeine (Anti-Morphine [2]): about 30% | Fluorescence Signal (Anti-Morphine [2]; Ex. V + anti-morphine + codeine 1.9 × 10^-7 M): 62.5 arbitrary units | Fluorescence Signal (Anti-Morphine [2]; Ex. V + anti-morphine + codeine 6.7 × 10^-7 M): 64.5 arbitrary units | Fluorescence Signal (Anti-Morphine [2]; Ex. V + anti-morphine + codeine 9.5 × 10^-8 M): 61 arbitrary units | concentration of codeine detectible (Anti-Morphine [2]; with the particular materials employed): about 10^-7

CN1CC[C@]23c4c5ccc(OCC(=O)Nc6ccc7c(c6)C6(OC7=O)c7ccc(O)cc7Oc7cc(O)ccc76)c4O[C@H]2[C@@H](O)C=C[C@H]3[C@H]1C5 [Ex. V]
change in signal intensity ([1]; cell No. 2, no codeine, in the first 5 minutes): 1.5 units | change in signal intensity ([1]; cell No. 2, no codeine, over 90 minutes): 2.5 units | Signal Intensity ([1]; fluorescein-morphine 5 μl + anti-fluorescein 5 μl + anti-morphine 5 μl, first reading, cells No. 2 and 3): 25 and 23 | Signal Intensity ([1]; fluorescein-morphine 5 μl + anti-fluorescein 5 μl, cell No. 2): 21 | Signal Intensity ([1]; fluorescein-morphine 5 μl alone, buffer pH 8.0, ex 460 nm, em 516 nm, cells No. 2 and 3): 62 and 46 | Signal Intensity ([1]; fluorescein-morphine + anti-fluorescein + anti-morphine (5 μl each), 5 min, cells No. 2 and 3): 26.5 and 22.5 | Signal Intensity ([1]; fluorescein-morphine + anti-fluorescein + anti-morphine (5 μl each), 90 min, cell No. 2): 27.5 | Signal Intensity (Anti-Morphine [3]; 5 min): 35 | Signal Intensity (Anti-Morphine [3]; first reading): 35.5 | reduction in signal intensity (Anti-Morphine [3]; fluorescein-morphine combined with antimorphine): approximately 25% | Fluorescence Signal (Anti-Morphine [2]; Ex. V 1.9 × 10^-8 M alone): 79 arbitrary units
